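In this assay, cells in 96-well plates receive the compound at five concentrations for 48 hours. Endpoints are linearly interpolated between the surrounding concentrations. Here, GI50 denotes the concentration required for 50% inhibition of growth.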 Activity calls are given as the source filed them. No stated cut-off is given here; in the data, active = GI50 up to about 1.1 µM and inactive = higher.
How the values were obtained:
Assay in all cases: DTP human tumour cell line panel, 48 h
A549 = system: A549
HCT-116 = system: HCT-116
HCT-15 = system: HCT-15
HOP-62 = system: HOP-62
HOP-92 = system: HOP-92
Hs-578T = system: Hs-578T
K562 = system: K562
LOX IMVI = system: LOX IMVI
M14 = system: M14
MDA-MB-435 = system: MDA-MB-435
NCI-H23 = system: NCI-H23
NCI/ADR-RES = system: NCI/ADR-RES
OVCAR-8 = system: OVCAR-8
SF-295 = system: SF-295
SF-539 = system: SF-539
SK-MEL-28 = system: SK-MEL-28
SNB-75 = system: SNB-75
SR = system: SR
SW-620 = system: SW-620
T47D = system: T47D

Measured: GI50

CC1(C)N=C(N)N=C(N)N1c1cccc(CSc2ccccc2)c1
active: A549 0.0301 µM | HCT-116 0.0588 µM | K562 0.774 µM | LOX IMVI 0.103 µM | M14 0.346 µM | MDA-MB-435 0.0813 µM | NCI-H23 0.619 µM | SF-295 1.1 µM | SF-539 0.461 µM | SK-MEL-28 0.805 µM | SR < 0.01 µM
inactive: HOP-62 6.4 µM | HOP-92 32 µM | Hs-578T 2.83 µM | NCI/ADR-RES > 100 µM | OVCAR-8 3.16 µM | SNB-75 4.42 µM | SW-620 7.59 µM | T47D 12.9 µM
50.4 µM: HCT-15

OC1(c2ccccc2)CSC2=Nc3ccccc3C3CCN1N23 (stereo not given)
17.6 µM: HCT-15
inactive: A549 26.8 µM | HCT-116 29.3 µM | HOP-62 14.5 µM | HOP-92 18.9 µM | Hs-578T 24.2 µM | K562 38.6 µM | LOX IMVI 19 µM | M14 21.9 µM | MDA-MB-435 17 µM | NCI-H23 27.7 µM | NCI/ADR-RES 18.5 µM | OVCAR-8 19.5 µM | SF-295 6.47 µM | SF-539 16.9 µM | SK-MEL-28 4.16 µM | SNB-75 3.75 µM | SR 20 µM | SW-620 21.4 µM | T47D 16.6 µM

CCn1cc(C(=O)O)c(=O)c2cc(F)c(N3CCN(CN4C(=O)/C(=N\NC(=O)c5ccncc5)c5cc(Cl)ccc54)CC3)cc21
31.1 µM: HCT-15
inactive: A549 57.3 µM | HCT-116 58.6 µM | HOP-62 22.9 µM | HOP-92 45.5 µM | Hs-578T 45.2 µM | K562 18.7 µM | LOX IMVI 34.3 µM | M14 54 µM | MDA-MB-435 28.6 µM | NCI-H23 59.4 µM | NCI/ADR-RES 79.6 µM | OVCAR-8 28.5 µM | SF-295 > 100 µM | SF-539 24.7 µM | SK-MEL-28 59.2 µM | SNB-75 25.5 µM | SR 2.34 µM | SW-620 23.4 µM | T47D 29.4 µM

CCCCCCCCCCCC[C@H](O)[C@H]1CC[C@H]([C@H](O)CCCC[C@H](O)CCCCC[C@@H](O)CC2=C[C@H](C)OC2=O)O1
inactive: A549 2.34 µM | HCT-116 1.76 µM | HOP-62 6.3 µM | HOP-92 4.03 µM | Hs-578T 5.43 µM | K562 1.23 µM | M14 3.45 µM | MDA-MB-435 1.4 µM | NCI/ADR-RES 1.61 µM | OVCAR-8 2.26 µM | SF-295 1.63 µM | SF-539 15.3 µM | SK-MEL-28 4.51 µM | SNB-75 4.99 µM | SR 2.82 µM | SW-620 2.75 µM | T47D 4.14 µM
active: LOX IMVI 1.11 µM | NCI-H23 0.00415 µM
5.56 µM: HCT-15

CCN(CC)CCC(=O)c1ccc(Oc2ccc(Cl)cc2)cc1
18.4 µM: HCT-15
inactive: A549 > 100 µM | HCT-116 17.6 µM | HOP-62 11.8 µM | HOP-92 16.2 µM | Hs-578T 23.6 µM | K562 31.8 µM | LOX IMVI 14.6 µM | M14 15.1 µM | MDA-MB-435 18.1 µM | NCI-H23 17.2 µM | NCI/ADR-RES 22.3 µM | OVCAR-8 19.9 µM | SF-295 18.4 µM | SF-539 24.8 µM | SK-MEL-28 17.7 µM | SNB-75 12 µM | SR 20.1 µM | SW-620 22 µM | T47D 20.7 µM

CCOC(=O)C1=CN(C(=O)c2ccccc2)CCC1Cc1ccccc1 (stereo not given)
21.3 µM: HCT-15
inactive: A549 29.2 µM | HCT-116 23.1 µM | HOP-62 30 µM | HOP-92 14.7 µM | Hs-578T 20.5 µM | K562 17.6 µM | LOX IMVI 18 µM | M14 18.6 µM | MDA-MB-435 20.4 µM | NCI-H23 29 µM | NCI/ADR-RES 20 µM | OVCAR-8 24.4 µM | SF-295 29.1 µM | SF-539 21.5 µM | SK-MEL-28 22.9 µM | SNB-75 18.2 µM | SR 12.5 µM | SW-620 26 µM | T47D 12.5 µM

COc1cc2nc(-c3cccs3)nc(Nc3ccccc3C(=O)NN)c2cc1OC
inactive: A549 > 100 µM | HCT-116 > 100 µM | HOP-62 > 100 µM | HOP-92 21.6 µM | Hs-578T > 100 µM | K562 97.5 µM | LOX IMVI 51.5 µM | M14 > 100 µM | MDA-MB-435 95.7 µM | NCI-H23 > 100 µM | NCI/ADR-RES > 100 µM | OVCAR-8 > 100 µM | SF-295 66.8 µM | SF-539 > 100 µM | SK-MEL-28 99.8 µM | SNB-75 > 100 µM | SR 23.6 µM | SW-620 > 100 µM | T47D > 100 µM
> 100 µM: HCT-15

From ChEMBL document CHEMBL1201862, “PubChem BioAssay data set” (2004)
